Assay results published in ChEMBL document CHEMBL1201862, “PubChem BioAssay data set” (2004).
Calls of active or inactive are those of the source.

How the values were obtained:
[1] = test system: Vero; assay: Vero cell cytotoxicity, cytotoxicity control for flavivirus capping enzyme inhibitors (AID 588742); format: functional; settings: Chlorocebus sabaeus
[2] = target: Genome polyprotein (dengue virus type 2, UniProt P29990); assay: Dengue-2 NS5 methyltransferase inhibitors, primary screen, biochemical, confirmation dose response (AID 588689); format: functional
Sequence of Genome polyprotein (P29990 2492-3391 limits assumed): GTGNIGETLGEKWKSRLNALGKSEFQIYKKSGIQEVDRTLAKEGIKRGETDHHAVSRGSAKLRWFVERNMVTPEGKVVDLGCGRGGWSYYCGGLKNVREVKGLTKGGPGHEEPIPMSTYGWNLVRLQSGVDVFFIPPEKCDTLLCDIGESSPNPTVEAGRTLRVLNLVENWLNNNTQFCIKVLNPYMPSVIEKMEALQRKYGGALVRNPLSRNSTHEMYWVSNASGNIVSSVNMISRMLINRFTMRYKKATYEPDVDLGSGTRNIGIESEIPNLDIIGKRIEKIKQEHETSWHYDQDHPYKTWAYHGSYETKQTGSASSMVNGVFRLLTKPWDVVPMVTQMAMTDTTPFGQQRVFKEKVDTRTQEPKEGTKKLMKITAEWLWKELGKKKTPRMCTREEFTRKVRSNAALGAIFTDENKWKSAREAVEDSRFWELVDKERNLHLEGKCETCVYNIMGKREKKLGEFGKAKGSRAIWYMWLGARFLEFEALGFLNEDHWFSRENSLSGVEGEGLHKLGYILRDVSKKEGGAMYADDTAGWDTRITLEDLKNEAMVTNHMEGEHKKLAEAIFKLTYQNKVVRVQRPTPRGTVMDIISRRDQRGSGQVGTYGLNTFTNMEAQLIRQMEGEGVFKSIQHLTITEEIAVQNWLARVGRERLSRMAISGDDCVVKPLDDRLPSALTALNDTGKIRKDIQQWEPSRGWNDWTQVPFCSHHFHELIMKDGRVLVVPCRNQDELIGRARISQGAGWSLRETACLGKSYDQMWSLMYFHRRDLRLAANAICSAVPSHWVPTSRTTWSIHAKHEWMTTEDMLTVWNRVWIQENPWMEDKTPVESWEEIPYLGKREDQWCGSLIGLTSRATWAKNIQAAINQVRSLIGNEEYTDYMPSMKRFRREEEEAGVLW

[3] = Shn3 3'UTR reporter inhibitors, dose response, cell-based, Clone20 osteoblasts, firefly luciferase, cherry-picked (AID 624132); format: functional;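 further: firefly luciferase luminescence from reporter carrying the Shn3 3'UTR in osteoblasts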
[4] = HepG2 cell cytotoxicity, dose response, cytotoxicity control for Shn3 inhibitor project, CellTiter-Glo, cherry-picked (AID 624134); format: functional, cell-based
[5] = control 3'UTR Renilla luciferase suppression, dose response, counter-screen for Shn3 inhibitor project, cell-based, Clone20-Shn3RL, cherry-picked (AID 624133); format: functional
[6] = target: T1, Caspase-6 (Homo sapiens, UniProt P55212); assay: human caspase-6 inhibitors, dose response, biochemical, VEID-R110 fluorescence, cherry-pick (AID 720632)
T1 sequence (P55212 whole entry): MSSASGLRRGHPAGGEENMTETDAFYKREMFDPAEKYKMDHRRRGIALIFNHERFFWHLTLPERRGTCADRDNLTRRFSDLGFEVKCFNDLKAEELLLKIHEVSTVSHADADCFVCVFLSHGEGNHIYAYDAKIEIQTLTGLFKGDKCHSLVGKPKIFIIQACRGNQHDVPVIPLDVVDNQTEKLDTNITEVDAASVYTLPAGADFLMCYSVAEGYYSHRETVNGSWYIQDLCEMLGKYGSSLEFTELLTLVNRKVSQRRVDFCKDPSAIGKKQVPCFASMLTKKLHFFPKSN

[7] = target: Disintegrin and metalloproteinase domain-containing protein 17 (Homo sapiens, UniProt P78536); assay: exosite inhibitors of ADAM17, dose response, biochemical (AID 743260)
Sequence of Disintegrin and metalloproteinase domain-containing protein 17 (P78536 whole entry, the tested form may be a part): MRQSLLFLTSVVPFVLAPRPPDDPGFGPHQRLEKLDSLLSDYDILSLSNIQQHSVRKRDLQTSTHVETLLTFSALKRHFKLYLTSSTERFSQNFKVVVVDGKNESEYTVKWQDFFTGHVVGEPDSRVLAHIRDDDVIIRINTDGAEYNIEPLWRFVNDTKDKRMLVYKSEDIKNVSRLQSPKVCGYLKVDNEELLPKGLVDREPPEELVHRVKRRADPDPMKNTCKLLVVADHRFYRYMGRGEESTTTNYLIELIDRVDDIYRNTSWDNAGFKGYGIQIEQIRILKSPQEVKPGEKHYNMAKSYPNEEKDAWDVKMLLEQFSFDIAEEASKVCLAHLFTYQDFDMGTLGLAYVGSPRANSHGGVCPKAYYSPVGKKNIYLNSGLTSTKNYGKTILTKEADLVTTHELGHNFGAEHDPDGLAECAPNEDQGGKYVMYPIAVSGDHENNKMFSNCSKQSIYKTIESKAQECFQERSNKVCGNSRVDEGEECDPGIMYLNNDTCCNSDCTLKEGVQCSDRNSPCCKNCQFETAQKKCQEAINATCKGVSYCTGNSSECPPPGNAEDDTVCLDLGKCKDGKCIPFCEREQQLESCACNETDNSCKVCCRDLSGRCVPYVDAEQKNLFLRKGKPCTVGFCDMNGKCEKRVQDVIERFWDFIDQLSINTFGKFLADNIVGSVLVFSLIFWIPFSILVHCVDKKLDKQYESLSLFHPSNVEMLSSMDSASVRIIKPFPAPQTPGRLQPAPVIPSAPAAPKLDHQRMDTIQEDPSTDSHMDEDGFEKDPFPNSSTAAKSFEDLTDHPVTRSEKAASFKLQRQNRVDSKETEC

[8] = ADAM10 protease inhibitors, dose response, selectivity assay for ADAM17 exosite inhibitor project, biochemical, FRET peptide substrate, recombinant human ADAM10 (AID 743259);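 further: ADAM10 enzyme cleaving a FRET peptide substrate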
[9] = target: Endoplasmic reticulum aminopeptidase 1 (Homo sapiens, UniProt Q9NZ08); assay: ERAP1 aminopeptidase inhibitors, dose response, biochemical, cherry-pick, set 2, plate reader (AID 743314)
Sequence of Endoplasmic reticulum aminopeptidase 1 (Q9NZ08 whole entry): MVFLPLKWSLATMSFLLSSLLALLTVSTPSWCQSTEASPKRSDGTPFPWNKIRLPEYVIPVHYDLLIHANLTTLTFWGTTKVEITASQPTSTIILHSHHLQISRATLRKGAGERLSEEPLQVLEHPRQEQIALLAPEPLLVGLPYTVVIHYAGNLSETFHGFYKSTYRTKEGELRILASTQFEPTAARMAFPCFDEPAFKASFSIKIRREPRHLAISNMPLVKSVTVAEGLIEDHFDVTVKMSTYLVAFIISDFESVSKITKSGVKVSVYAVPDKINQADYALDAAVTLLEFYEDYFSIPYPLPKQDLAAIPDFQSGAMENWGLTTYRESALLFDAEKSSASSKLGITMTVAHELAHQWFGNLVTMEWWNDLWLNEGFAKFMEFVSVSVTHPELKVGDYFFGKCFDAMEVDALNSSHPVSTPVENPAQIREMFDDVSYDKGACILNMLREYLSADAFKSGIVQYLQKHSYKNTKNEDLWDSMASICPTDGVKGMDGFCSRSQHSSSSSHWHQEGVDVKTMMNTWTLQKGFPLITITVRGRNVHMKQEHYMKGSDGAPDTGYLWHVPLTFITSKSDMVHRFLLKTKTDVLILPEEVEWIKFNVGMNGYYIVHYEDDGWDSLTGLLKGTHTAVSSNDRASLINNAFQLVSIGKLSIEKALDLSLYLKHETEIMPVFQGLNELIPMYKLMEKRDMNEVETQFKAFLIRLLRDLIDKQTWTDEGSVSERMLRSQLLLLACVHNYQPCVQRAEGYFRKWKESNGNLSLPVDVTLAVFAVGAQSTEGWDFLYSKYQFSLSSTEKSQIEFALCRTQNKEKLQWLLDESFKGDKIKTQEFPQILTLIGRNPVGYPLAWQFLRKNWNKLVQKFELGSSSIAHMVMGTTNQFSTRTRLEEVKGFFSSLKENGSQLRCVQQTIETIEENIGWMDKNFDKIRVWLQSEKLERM

[10] = microbe, parasite or virus in culture; format: functional; settings: Mycobacterium tuberculosis
[11] = target: T2, Caspase-3 (Homo sapiens, UniProt P42574); format: functional;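 further: Dose-response selectivity test against caspase-3 for candidate inhibitors of sentrin-specific proteases (SENPs)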
T2 sequence (P42574 whole entry): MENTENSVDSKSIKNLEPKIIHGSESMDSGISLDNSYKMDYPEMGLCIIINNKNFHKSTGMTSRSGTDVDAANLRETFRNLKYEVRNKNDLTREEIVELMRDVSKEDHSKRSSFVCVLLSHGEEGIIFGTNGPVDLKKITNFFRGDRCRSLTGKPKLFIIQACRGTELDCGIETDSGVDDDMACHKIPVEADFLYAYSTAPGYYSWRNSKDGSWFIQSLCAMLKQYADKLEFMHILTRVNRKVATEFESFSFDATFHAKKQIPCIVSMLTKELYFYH

[12] = target: T3, Sentrin-specific protease 7 (Homo sapiens, UniProt Q9BQF6); format: functional;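 further: Luminescence-based dose-response confirmation of ultra-high-throughput screening hits, measuring inhibition of SENP7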
T3 sequence (Q9BQF6 whole entry): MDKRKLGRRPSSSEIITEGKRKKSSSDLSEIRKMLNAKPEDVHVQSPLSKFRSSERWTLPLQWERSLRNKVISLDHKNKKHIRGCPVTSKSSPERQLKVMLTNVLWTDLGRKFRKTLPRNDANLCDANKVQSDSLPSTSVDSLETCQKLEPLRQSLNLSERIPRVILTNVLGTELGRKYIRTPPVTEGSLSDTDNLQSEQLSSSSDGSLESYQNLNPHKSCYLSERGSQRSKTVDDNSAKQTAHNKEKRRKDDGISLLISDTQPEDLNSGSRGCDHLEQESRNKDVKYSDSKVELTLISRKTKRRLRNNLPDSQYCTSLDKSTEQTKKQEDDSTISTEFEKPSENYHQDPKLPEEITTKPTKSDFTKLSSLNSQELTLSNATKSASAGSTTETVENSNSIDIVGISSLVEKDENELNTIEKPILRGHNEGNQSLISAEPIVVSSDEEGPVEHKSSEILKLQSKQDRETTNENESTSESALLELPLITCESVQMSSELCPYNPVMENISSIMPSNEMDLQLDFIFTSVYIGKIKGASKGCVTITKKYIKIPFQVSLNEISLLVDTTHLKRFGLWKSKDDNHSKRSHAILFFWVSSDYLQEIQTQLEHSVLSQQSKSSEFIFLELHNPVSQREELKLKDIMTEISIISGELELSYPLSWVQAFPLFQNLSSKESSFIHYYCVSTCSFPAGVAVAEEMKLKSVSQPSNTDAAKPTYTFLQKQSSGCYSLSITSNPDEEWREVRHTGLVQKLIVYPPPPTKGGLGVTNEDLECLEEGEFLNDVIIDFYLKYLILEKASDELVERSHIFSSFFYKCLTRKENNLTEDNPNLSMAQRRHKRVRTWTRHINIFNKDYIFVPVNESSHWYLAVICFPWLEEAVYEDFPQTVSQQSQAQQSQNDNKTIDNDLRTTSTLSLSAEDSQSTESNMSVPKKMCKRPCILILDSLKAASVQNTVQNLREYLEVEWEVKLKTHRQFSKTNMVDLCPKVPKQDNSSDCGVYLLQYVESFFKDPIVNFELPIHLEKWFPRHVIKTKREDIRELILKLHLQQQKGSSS

[13] = target: T4, Heat shock factor protein 1 (Mus musculus, UniProt P38532); assay: HSF1 potentiators in luciferase reporter cells, confirmation, cell-based, NIH3T3, luminescence, dose retest (AID 435004); format: functional;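 further: stress induced by proteasome inhibitor MG132 added 30 min after compound; luciferase reporter driven by HSF1 response element in NIH3T3 cells; actives raise luminescence as potentiators of the MG132 stress response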
T4 sequence (P38532 whole entry): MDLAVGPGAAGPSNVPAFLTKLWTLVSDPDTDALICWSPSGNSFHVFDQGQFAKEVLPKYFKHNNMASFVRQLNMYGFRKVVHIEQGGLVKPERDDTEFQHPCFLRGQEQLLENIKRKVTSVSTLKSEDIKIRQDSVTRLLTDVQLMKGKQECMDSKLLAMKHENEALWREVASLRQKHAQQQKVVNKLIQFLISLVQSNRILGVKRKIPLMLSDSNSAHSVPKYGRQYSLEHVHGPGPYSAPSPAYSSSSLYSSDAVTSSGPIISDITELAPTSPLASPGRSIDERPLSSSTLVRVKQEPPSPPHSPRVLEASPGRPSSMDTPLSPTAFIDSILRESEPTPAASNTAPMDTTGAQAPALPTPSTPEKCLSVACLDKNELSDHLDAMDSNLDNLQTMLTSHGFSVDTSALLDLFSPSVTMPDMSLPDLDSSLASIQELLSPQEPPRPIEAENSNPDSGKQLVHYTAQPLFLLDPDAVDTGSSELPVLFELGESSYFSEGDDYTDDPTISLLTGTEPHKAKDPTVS

[14] = target: T5, Sentrin-specific protease 6 (Homo sapiens, UniProt Q9GZR1); format: functional;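 further: Luminescence-based dose-response confirmatory assay of SENP6 inhibition, following up an ultra-high-throughput screen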
T5 sequence (Q9GZR1 whole entry): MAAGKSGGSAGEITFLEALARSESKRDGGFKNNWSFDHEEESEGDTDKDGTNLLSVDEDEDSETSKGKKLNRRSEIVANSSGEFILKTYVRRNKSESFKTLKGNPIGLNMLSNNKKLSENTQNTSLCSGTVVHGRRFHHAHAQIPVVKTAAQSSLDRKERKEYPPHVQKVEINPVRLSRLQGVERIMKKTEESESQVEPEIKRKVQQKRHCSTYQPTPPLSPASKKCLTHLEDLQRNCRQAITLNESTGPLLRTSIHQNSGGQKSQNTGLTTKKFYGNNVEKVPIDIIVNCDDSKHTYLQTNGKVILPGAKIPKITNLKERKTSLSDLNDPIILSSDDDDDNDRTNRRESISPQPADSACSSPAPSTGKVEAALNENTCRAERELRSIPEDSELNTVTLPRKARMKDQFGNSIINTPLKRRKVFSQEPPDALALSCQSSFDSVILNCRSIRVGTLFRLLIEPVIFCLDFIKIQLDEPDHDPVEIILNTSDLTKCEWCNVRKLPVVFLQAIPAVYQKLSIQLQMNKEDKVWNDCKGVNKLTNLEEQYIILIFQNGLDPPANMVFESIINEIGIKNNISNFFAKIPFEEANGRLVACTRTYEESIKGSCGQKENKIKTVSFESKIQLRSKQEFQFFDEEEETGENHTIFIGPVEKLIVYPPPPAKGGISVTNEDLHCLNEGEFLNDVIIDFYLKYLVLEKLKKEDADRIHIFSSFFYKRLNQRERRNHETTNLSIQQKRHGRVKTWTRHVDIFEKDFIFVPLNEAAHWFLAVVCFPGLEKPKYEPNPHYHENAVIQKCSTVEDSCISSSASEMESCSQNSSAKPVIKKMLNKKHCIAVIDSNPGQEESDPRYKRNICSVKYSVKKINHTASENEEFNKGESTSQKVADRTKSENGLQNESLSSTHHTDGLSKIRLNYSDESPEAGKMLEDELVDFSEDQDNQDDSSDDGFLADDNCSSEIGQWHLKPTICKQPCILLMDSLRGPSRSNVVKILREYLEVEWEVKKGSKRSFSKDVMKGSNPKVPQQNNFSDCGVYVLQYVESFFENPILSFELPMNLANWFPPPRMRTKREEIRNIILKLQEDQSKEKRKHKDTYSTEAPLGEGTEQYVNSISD

[15] = target: T6, Sentrin-specific protease 8 (Homo sapiens, UniProt Q96LD8); format: functional
T6 sequence (Q96LD8 whole entry): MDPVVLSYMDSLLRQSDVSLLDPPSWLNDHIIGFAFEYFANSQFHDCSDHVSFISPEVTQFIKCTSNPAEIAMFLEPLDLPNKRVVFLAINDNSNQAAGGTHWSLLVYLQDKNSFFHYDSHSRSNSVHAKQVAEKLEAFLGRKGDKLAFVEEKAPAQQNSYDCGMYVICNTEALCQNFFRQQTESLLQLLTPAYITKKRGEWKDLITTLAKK

[16] = test system: INS1; assay: beta cell apoptosis inhibitors, cytokine rescue, dose response, luminescence, retest (AID 449756); format: functional, cell-based; settings: Rattus norvegicus;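 further: cell death triggered by IL-1 beta plus TNF-alpha plus IFN-gamma mixture; protective hits raise ATP signal compared with cytokine alone wells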
[17] = target: T7, Tyrosyl-DNA phosphodiesterase 2 (Homo sapiens, UniProt O95551); assay: human TDP2 enzyme inhibitors, dose response, biochemical, epi absorbance, IC50 (AID 743297)
T7 sequence (O95551 whole entry): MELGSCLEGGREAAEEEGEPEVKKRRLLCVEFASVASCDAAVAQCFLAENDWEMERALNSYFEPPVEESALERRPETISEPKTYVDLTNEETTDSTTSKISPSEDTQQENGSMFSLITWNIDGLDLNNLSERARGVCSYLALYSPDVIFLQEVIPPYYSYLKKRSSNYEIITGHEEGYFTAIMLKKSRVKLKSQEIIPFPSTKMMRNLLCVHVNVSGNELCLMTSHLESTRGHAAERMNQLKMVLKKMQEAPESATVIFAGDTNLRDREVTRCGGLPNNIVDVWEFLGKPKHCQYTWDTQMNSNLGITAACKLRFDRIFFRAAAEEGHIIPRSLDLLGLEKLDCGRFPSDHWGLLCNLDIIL

[18] = target: T8, Replicative DNA helicase DnaB (Mycobacterium tuberculosis, UniProt P9WMR3); assay: DnaB intein splicing inhibitors, dose response, biochemical, cell-free fluorescence (AID 449749); format: functional
T8 sequence (P9WMR3 whole entry): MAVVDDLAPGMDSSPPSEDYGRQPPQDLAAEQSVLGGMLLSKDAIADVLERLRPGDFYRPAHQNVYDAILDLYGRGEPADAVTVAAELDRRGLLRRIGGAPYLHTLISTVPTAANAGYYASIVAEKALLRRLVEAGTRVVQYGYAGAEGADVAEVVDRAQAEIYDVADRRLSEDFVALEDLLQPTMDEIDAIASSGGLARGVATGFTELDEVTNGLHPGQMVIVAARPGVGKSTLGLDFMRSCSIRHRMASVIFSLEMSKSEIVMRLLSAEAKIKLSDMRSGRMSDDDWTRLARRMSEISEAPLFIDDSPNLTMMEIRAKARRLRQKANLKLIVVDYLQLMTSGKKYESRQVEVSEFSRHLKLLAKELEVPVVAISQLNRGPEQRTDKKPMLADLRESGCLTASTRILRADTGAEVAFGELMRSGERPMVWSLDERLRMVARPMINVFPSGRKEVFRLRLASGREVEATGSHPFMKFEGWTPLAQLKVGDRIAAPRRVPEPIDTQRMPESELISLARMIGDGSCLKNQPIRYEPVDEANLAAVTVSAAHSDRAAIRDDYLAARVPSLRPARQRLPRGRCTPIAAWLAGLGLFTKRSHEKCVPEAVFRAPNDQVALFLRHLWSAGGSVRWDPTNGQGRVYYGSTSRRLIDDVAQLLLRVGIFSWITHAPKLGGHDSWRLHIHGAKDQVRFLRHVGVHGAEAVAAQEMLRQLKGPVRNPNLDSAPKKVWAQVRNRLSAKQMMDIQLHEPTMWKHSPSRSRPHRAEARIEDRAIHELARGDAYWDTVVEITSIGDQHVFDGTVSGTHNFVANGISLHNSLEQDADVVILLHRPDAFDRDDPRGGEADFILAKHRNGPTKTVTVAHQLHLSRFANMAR

[19] = target: T6, Sentrin-specific protease 8; format: functional; remark: listed apart in the source
[20] = target: T6, Sentrin-specific protease 8; format: functional; remark: listed apart in the source

CC(=O)N1CCc2c(sc(NC(=O)c3ccc([N+](=O)[O-])o3)c2C(N)=O)C1
CC50 [1]: 4.1 µM (active)
IC50 [2]: 89.3 µM (active)
AC50 [3]: 1.85 µM (active)
AC50 [4]: 20 µM (active)
AC50 [5]: 13.1 µM (active)
AC50 [6]: 12.7 µM (active)

Clc1ccc(OCCOCCOc2cccc3cccnc23)c(Br)c1
IC50 [7]: > 69.5 µM (inactive)
IC50 [8]: > 69.5 µM (inactive)

Cc1ccc(NC(=O)c2cc(S(=O)(=O)NCC3CCCO3)ccc2F)cc1 (stereo not given)
AC50 [6]: 45.9 µM (active)

CC(=O)N1[C@@H]2c3ccc(/C=C/c4ccccc4)c(=O)n3C[C@H]1[C@H](CO)[C@H]2C(=O)N(C)C
AC50 [9]: 4.5 µM (active)

COc1ccc(NC(C)C(=O)N/N=C/c2ccccc2OCc2ccc(Br)cc2)cc1 (stereo not given)
IC50 [7]: > 69.5 µM (inactive)
IC50 [8]: > 69.5 µM (inactive)

S=C(Nc1ccc(Cl)cc1)Nc1cccc2cnccc12
CC50 [10]: > 40 µM (active)
IC50 [11]: 11.7 µM (active)
IC50 [12]: 6.24 µM (active)
EC50 [13]: > 260 µM (inactive)
IC50 [14]: 2.87 µM (active)
IC50 [15]: 5.49 µM (active)
AC50 [16]: > 260 µM (inactive)
IC50 [17]: 130 µM (inactive)

Nc1ccc(N2CCOCC2)c2nonc12
AC50 [18]: 18.8 µM (active)
IC50 [19]: 3.67 µM (active)
IC50 [20]: 2.98 µM (active)
IC50 [17]: > 128 µM (inactive)

CN1[C@@H]2Cn3c(ccc(/C=C/c4ccccc4)c3=O)[C@H]1[C@@H](C(=O)NC1CCCC1)[C@@H]2CO
AC50 [9]: 9.03 µM (active)
